From ChEMBL document CHEMBL3098085, “Novel 2-chloro-4-anilino-quinazoline derivatives as EGFR and VEGFR-2 dual inhibitors” (Eur J Med Chem, 2014)

Tests used:
[1] = molecular target: Vascular endothelial growth factor receptor 2 (Homo sapiens, UniProt P35968); assay: Inhibition of VEGFR2 (unknown origin) assessed as inhibition of 33[Pi] incorporation after 60 mins by scintillation counting
[2] = molecular target: Epidermal growth factor receptor (Homo sapiens, UniProt P00533); assay: Inhibition of wild type EGFR (unknown origin) assessed as inhibition of 33[Pi] incorporation after 60 mins by scintillation counting
Epidermal growth factor receptor, sequence (P00533 whole entry): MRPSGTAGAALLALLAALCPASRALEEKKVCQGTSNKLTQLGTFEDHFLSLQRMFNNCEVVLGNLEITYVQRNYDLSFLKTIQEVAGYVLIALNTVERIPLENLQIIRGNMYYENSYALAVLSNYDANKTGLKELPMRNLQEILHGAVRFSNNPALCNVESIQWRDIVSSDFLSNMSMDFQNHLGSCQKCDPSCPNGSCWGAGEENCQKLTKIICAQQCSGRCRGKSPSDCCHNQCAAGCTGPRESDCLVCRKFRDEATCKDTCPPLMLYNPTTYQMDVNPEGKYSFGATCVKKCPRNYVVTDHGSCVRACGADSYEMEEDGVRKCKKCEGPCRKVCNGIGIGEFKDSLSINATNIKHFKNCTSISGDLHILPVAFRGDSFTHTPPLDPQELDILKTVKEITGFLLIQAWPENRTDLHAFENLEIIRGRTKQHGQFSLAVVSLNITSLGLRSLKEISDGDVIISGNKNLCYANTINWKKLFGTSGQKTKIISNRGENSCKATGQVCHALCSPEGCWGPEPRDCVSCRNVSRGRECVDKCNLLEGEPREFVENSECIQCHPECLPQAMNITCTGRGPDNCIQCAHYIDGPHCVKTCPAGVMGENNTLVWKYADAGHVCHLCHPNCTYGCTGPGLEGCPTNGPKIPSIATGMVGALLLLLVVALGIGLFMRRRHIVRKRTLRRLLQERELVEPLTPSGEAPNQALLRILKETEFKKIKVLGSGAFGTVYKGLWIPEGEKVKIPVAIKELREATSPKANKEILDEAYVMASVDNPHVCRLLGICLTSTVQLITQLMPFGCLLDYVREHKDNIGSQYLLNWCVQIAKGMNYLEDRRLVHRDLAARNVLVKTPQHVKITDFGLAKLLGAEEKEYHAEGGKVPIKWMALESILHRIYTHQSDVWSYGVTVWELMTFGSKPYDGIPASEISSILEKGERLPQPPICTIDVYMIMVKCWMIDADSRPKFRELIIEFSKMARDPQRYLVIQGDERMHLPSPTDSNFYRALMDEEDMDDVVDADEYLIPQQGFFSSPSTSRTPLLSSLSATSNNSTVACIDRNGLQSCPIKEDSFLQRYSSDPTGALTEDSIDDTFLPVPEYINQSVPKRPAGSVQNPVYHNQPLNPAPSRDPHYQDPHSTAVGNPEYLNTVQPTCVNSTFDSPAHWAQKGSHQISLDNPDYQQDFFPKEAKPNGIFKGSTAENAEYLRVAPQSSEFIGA

Vascular endothelial growth factor receptor 2, sequence (P35968 whole entry): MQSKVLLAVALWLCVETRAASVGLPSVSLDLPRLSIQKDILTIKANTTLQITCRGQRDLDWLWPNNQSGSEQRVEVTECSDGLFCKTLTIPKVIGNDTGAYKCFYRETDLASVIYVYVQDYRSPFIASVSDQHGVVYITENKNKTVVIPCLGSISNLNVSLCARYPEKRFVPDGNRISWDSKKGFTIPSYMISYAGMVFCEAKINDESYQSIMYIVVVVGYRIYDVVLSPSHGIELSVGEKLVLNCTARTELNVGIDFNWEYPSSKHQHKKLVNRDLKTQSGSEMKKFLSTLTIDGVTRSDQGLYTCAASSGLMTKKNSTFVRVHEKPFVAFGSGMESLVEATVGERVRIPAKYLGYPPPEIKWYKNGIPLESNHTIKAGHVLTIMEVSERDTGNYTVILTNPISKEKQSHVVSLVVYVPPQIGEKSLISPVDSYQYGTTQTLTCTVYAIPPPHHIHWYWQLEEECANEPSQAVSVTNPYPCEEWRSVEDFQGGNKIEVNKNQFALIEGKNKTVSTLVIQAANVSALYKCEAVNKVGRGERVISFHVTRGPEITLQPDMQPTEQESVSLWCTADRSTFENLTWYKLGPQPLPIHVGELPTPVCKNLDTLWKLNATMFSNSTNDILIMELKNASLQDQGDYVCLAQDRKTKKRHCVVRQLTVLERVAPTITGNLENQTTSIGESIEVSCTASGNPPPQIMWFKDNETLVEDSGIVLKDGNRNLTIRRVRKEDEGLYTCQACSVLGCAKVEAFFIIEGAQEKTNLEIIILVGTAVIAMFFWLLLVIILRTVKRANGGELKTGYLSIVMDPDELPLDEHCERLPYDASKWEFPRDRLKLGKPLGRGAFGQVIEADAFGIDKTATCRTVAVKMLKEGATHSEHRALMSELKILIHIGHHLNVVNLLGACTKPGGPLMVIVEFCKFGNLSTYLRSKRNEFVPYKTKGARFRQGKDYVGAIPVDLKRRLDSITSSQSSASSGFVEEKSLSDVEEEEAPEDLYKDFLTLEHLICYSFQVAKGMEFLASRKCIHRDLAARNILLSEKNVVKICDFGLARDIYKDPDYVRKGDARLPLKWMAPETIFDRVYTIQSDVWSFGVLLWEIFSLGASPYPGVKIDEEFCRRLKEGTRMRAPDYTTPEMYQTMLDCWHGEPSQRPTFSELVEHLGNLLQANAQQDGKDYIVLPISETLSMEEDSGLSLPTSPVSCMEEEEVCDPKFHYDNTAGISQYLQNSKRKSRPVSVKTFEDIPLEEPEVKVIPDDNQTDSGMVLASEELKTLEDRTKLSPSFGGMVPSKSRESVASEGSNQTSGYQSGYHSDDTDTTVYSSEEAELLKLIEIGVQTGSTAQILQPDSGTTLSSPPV

SMILES	IC50 [1] [µM]	IC50 [2] [µM]
COc1cc2nc(Cl)nc(Nc3ccc(NC(C)=O)cc3)c2cc1OC	1.99	37.6
O=S(=O)(Nc1nccs1)c1ccc(Nc2nc(Cl)nc3cc4c(cc23)OCO4)cc1	> 100	> 100
CN(C)S(=O)(=O)c1ccc(Nc2nc(Cl)nc3ccccc23)cc1	> 100	> 100
COc1cc2nc(Cl)nc(Nc3ccc(C(=O)O)cc3)c2cc1OC	> 100	> 100
COc1cc2nc(Cl)nc(Nc3ccc(S(=O)(=O)N(C)C)cc3)c2cc1OC	43.3	67.2
NS(=O)(=O)c1ccc(Nc2nc(Cl)nc3cc4c(cc23)OCO4)cc1	26.9	34.6
CNS(=O)(=O)c1ccc(Nc2nc(Cl)nc3cc(OC)c(OC)cc23)cc1	0.85	1.63
COc1cc2nc(Cl)nc(Nc3ccc(S(N)(=O)=O)cc3)c2cc1OC	1.02	2.37
CN(C)S(=O)(=O)c1ccc(Nc2nc(Cl)nc3cc4c(cc23)OCO4)cc1	23.4	18.3
COc1cc2nc(Cl)nc(Nc3ccc(N(C)C)cc3)c2cc1OC	39.3	36
COc1cc2nc(Cl)nc(Nc3ccc(S(=O)(=O)Nc4nccs4)cc3)c2cc1OC	7.79	9.7
COc1cc2nc(Cl)nc(Nc3ccc(O)cc3)c2cc1OC	2.1	4.3
CN(C)c1ccc(Nc2nc(Cl)nc3cc4c(cc23)OCO4)cc1	> 100	> 100
COc1cc2nc(Cl)nc(Nc3ccc(S(=O)(=O)O)cc3)c2cc1OC	> 100	> 100
COc1cc2nc(Cl)nc(Nc3ccc(C(N)=O)cc3)c2cc1OC	1.17	0.9
COc1cc2nc(Cl)nc(Nc3ccc(S(C)(=O)=O)cc3)c2cc1OC	> 100	61.5
CS(=O)(=O)c1ccc(Nc2nc(Cl)nc3cc4c(cc23)OCO4)cc1	> 100	> 100
